The nature of data set [1]: Metabolic stability in human liver microsomes assessed as parent compound remaining after 10 mins. It is filed as ADME, microsome. The settings on record: read-out: Stability.
The nature of data set [2]: (§1) Metabolic stability in rat liver microsomes assessed as parent compound remaining after 10 mins. It counts as ADME, microsome. The note with it: liver microsomes, read-out: Stability.
Data set [3] in a line: Clearance in rat at 2 mg/kg, iv. It counts as ADME, organism-based. The note with it: in vivo.
Data set [4] in a line: Volume of distribution at steady state in rat at 2 mg/kg, iv or 5 mg/kg, po. The settings on record: in vivo, read-out: Vdss. It is filed as ADME, organism-based.
Data set [5] is described as follows: Plasma half life in rat at 2 mg/kg, iv. It counts as ADME, organism-based.
In another data set the test system is Rattus norvegicus. Kind of data set: AUC in rat at 5 mg/kg, po. It counts as ADME, organism-based. The note with it: in vivo, BLD = below limit of detection.
A further data set relates to Liver. The data set is described as §1. It counts as ADME, microsome. The settings on record: microsomes, 10 min.

Each structure is given as a SMILES string.

Regarding `COC(=O)NCCS(=O)(=O)NC(=O)c1ccc(Nc2nc(NC3(c4ccc(Cl)cc4)CC3)nc(OCC(F)(F)F)n2)cc1`, the remaining at 10 min in data set [1] is 90%; in data set [2], 100%.
Regarding `CNC(=O)NCCS(=O)(=O)NC(=O)c1ccc(Nc2nc(NC3(c4ccc(Cl)cc4)CC3)nc(OCC(F)(F)F)n2)cc1`, the values for the remaining at 10 min in data set [1] and in data set [2] were 97% and 100%, respectively.
With `CC(C)NC(=O)NCCS(=O)(=O)NC(=O)c1ccc(Nc2nc(NC3(c4ccc(Cl)cc4)CC3)nc(OCC(F)(F)F)n2)cc1`, the remaining at 10 min in data set [1] stood at 100%; in data set [2] it was 97%.
In the case of `CN(C)CCS(=O)(=O)NC(=O)c1ccc(Nc2nc(NC3(c4ccc(Cl)cc4)CC3)nc(OCC(F)(F)F)n2)cc1`, the remaining at 10 min in data set [1] came out at 89%; in data set [2] it was 100%.
Regarding `CCN(CC)CCS(=O)(=O)NC(=O)c1ccc(Nc2nc(NC3(c4ccc(Cl)cc4)CC3)nc(OCC(F)(F)F)n2)cc1`, the remaining at 10 min in data set [1] amounted to 99%; in data set [2] it was 98%.
For the compound `CC(C)(C)CNCCS(=O)(=O)NC(=O)c1ccc(Nc2nc(NC3(c4ccc(Cl)cc4)CC3)nc(OCC(F)(F)F)n2)cc1`, the remaining at 10 min in data set [1] was 89%; in data set [2] it was 90%. Further, the clearance in data set [3] turned out to be 22.5 mL/min/kg. Further, in data set [4], the Vd worked out at 0.6 L/kg. In data set [5], this compound had a half-life of 2.6 h. Moreover, the AUC entry in the data set on Rattus norvegicus is “Bld”.
Consider `Cc1ccccc1S(=O)(=O)NC(=O)c1ccc(Nc2nc(NC3(c4ccc(Cl)cc4)CC3)nc(OCC(F)(F)F)n2)cc1`, for which the remaining at 10 min in data set [1] and in data set [2] was 100% each time.
On to `CC(C)C(=O)NCCS(=O)(=O)NC(=O)c1ccc(Nc2nc(NC3(c4ccc(Cl)cc4)CC3)nc(OCC(F)(F)F)n2)cc1`, for which the remaining at 10 min in data set [1] stood at 86%; in data set [2] it was 84%.
For `CS(=O)(=O)NC(=O)c1ccc(Nc2nc(NC3(c4ccc(Cl)cc4)CC3)nc(OCC(F)(F)F)n2)cc1`, the remaining at 10 min came out at 100% in data set [1] and 85% in data set [2].
In the case of `CC(C)(C)OC(=O)NCCS(=O)(=O)NC(=O)c1ccc(Nc2nc(NC3(c4ccc(Cl)cc4)CC3)nc(OCC(F)(F)F)n2)cc1`, the results for the remaining at 10 min in data set [1] and in data set [2] were 92% and 93%, respectively.
In the case of `CCS(=O)(=O)NC(=O)c1ccc(Nc2nc(NC3(c4ccc(Cl)cc4)CC3)nc(OCC(F)(F)F)n2)cc1`, the remaining at 10 min in data set [1] was determined as 100%; in data set [2] it was 85%.
`O=C(NS(=O)(=O)CCNCc1ccccc1)c1ccc(Nc2nc(NC3(c4ccc(Cl)cc4)CC3)nc(OCC(F)(F)F)n2)cc1`: the remaining at 10 min worked out at 99% in data set [1] and 100% in data set [2].
For `CC(=O)NCCS(=O)(=O)NC(=O)c1ccc(Nc2nc(NC3(c4ccc(Cl)cc4)CC3)nc(OCC(F)(F)F)n2)cc1`, the remaining at 10 min was found to be 95% in data set [1] and 100% in data set [2].
On the same counts, the results for `O=C(NS(=O)(=O)C1CC1)c1ccc(Nc2nc(NC3(c4ccc(Cl)cc4)CC3)nc(OCC(F)(F)F)n2)cc1` are 100% and 85%.
On to `O=C(NS(=O)(=O)CCNC(=O)C1CC1)c1ccc(Nc2nc(NC3(c4ccc(Cl)cc4)CC3)nc(OCC(F)(F)F)n2)cc1`, for which the remaining at 10 min in data set [1] was 90%. In addition, the Stability result in the data set on Liver was “Not Active”.
`CCCCCNc1nc(Nc2ccc([N+](=O)[O-])cc2)nc(OCC(F)(F)F)n1`: the figures for the remaining at 10 min in data set [1] and in data set [2] were 74% and 35%, respectively.
For `CC(C)NCCS(=O)(=O)NC(=O)c1ccc(Nc2nc(NC3(c4ccc(Cl)cc4)CC3)nc(OCC(F)(F)F)n2)cc1`, the remaining at 10 min in data set [1] turned out to be 89%; in data set [2], 100%.
As to `O=C(O)c1ccc(Nc2nc(NC3(c4ccc(Cl)cc4)CC3)nc(OCC(F)(F)F)n2)cc1`, the values for the remaining at 10 min in data set [1] and in data set [2] were 89% and 99%, respectively.
On to `O=C(NS(=O)(=O)CCN1CCOCC1)c1ccc(Nc2nc(NC3(c4ccc(Cl)cc4)CC3)nc(OCC(F)(F)F)n2)cc1`, for which the remaining at 10 min in data set [1] was 78%; in data set [2], 97%.
`O=C(NS(=O)(=O)CCN1CCCC1)c1ccc(Nc2nc(NC3(c4ccc(Cl)cc4)CC3)nc(OCC(F)(F)F)n2)cc1`: the remaining at 10 min in data set [1] worked out at 96%; in data set [2], 98%.
Consider `CC(C)S(=O)(=O)NC(=O)c1ccc(Nc2nc(NC3(c4ccc(Cl)cc4)CC3)nc(OCC(F)(F)F)n2)cc1`, for which the results for the remaining at 10 min in data set [1] and in data set [2] were 100% and 96%, respectively.
In the same order, the values of `CC(C)OC(=O)NCCS(=O)(=O)NC(=O)c1ccc(Nc2nc(NC3(c4ccc(Cl)cc4)CC3)nc(OCC(F)(F)F)n2)cc1` are 100% and 73%.
Turning to `O=C(NS(=O)(=O)c1ccccc1)c1ccc(Nc2nc(NC3(c4ccc(Cl)cc4)CC3)nc(OCC(F)(F)F)n2)cc1`, the remaining at 10 min in data set [1] and in data set [2] was 100% throughout.
As to `CC(C)(C)NC(=O)NCCS(=O)(=O)NC(=O)c1ccc(Nc2nc(NC3(c4ccc(Cl)cc4)CC3)nc(OCC(F)(F)F)n2)cc1`, the remaining at 10 min in data set [1] was 96%; in data set [2] it was 93%.
Turning to `NCCS(=O)(=O)NC(=O)c1ccc(Nc2nc(NC3(c4ccc(Cl)cc4)CC3)nc(OCC(F)(F)F)n2)cc1`, the remaining at 10 min in data set [1] and in data set [2] was 100% throughout.
With `CN(C)S(=O)(=O)NC(=O)c1ccc(Nc2nc(NC3(c4ccc(Cl)cc4)CC3)nc(OCC(F)(F)F)n2)cc1`, the values for the remaining at 10 min in data set [1] and in data set [2] were 86% and 76%, respectively.
For `O=C(NS(=O)(=O)c1ccc(F)cc1)c1ccc(Nc2nc(NC3(c4ccc(Cl)cc4)CC3)nc(OCC(F)(F)F)n2)cc1`, the remaining at 10 min in data set [1] is 100%; in data set [2] it was 99%.

The values are drawn from ChEMBL document CHEMBL4002616, “Functionalized triazines as potent HCV entry inhibitors” (Bioorg Med Chem Lett, 2017).
